Results on eight molecules are retold here after patent publication US6162826A, “Genipin derivative having anti hepatitis B virus activity” (priority 1996, dated 2000).

Where two headings read alike, the source gives them in different places. Where only a bound is given, the exact number is not on record here.

The test system of series [1] is HBV replication. Kind of series: Inhibitory effect on HBV replication in 2.2.15 cell culture. In kind it is cell-based, hepatitis B virus. The conditions noted are these: for EC50: Hepatitis B virus, 216 h, read-out: ED50 (inhibitory effect on HBV replication); for SI (Selectivity Index, IC50/ED50): cytotoxicity IC50 / HBV ED50, 2.2.15 cell culture. The source says: Inhibitory effect on HBV replication was examined by the use of 2.2.15. cell. 2.2.15. cell line (see, Sells et al., Journal of Virology, 62, 2836-2844, 1988) is a hepatoma cell infected by hepatitis B virus and is a representative standard cell which accurately standardizes all the essential viral characteristics induced by a chronic HBV infection. That is, 2.2.15. cell has some merits such that DNA pattern is stable, replicated virus exists in high level, virus-specific RNA replicate and protein are present in an appropriate size and pattern, the penetrated HBV virion is excreted in high titer, etc. Therefore, it has been recognized as a very suitable cell line which can be used when the anti viral activity of any compound on HBV is evaluated (see, Korba and Milman, Antiviral Research, 15, p217-228, 1991).
First, the present inventors cultured 2.2.15. cell and treated the cell with the novel compound according to the present invention. Then, extraction of DNA and RNA, gel electrophoresis, and hybridization analysis of HBV DNA were carried out to identify the inhibitory activity of the compound of the present invention on HBV replication. Herein, untreated cell was used as a control and ddC (dideoxy cytidine) widely known as a therapeutic agent for hepatitis was used as a comparative compound. As a result, it could be seen that the genipin derivative according to the present invention has an excellent inhibitory effect on replication like the known ddC.
Test for identifying the anti HBV effect of the compound of the present invention was carried out according to a known assay method (see, Korba and Milman, Antiviral Res., 15, 217, 1991). The assay procedure is briefly described in the following.
2.2.15. cell was cultured and preserved in RPM 11640 culture medium containing 5% fetal bovine serum(FBS), 2 mM glutamine and 50 μg/ml gentamicin sulfate. Resistance to G418 of the cell culture and degree of Mycoplasma contamination were examined according to conventional methods.
Cells (1×10^4 /cm^2) were inoculated into a multi-well tissue culture plate, confluently cultured for 7 days, and then kept for 2 or 3 days in confluent condition to stabilize the HBV DNA level. Then, culture medium was replaced 24 hours before cells were exposed to test compound. During the treatment of 9 days, culture medium was replaced and then test compound was added to the fresh culture medium at intervals of 24 hours. Culture medium was collected immediately before the first introduction of test compound, and after 3, 6, 9 days, respectively, and stored at -70° C. before HBV DNA analysis. Then, cytolysis was carried out to analyze the intracellular HBV DNA.
To analyze the extracellular HBV DNA, 0.2 ml of culture medium was incubated in 1M NaOH/10×SSC (1×SSC=0.15M NaCl/0.015M sodium citrate, pH 7.2) for 20 minutes at 25° C. and then immediately applied to a nitrocellulose membrane presoaked in 20×SSC using a slot blot apparatus. The sample was washed twice with 0.5 ml of 1M Tris/2M NaCl (pH 7.2) and once with 0.5 ml of 20×SSC to neutralize, and then it was washed again with 2×SSC and heated at 80° C. for one hour under vacuum. Generally, the cells which have been cultured and preserved in a dish having a diameter of 10 cm are dissolved in 6 ml of lysis buffer, and the […] is prepared according to the method of Korba et al., 1991.
10 μg/lane of cellular DNA sample was digested with restriction enzyme Hind III. Then, the digested sample was applied to 1% agarose gel electrophoresis and transferred to a nitrocellulose membrane.
3.2 kb HBV DNA fragment obtained by EcoR 1-digestion and purification was labeled with [^32 P]dCTP using nick translation method. This labeled fragment was used as a hybridization probe. Conditions for hybridization and post-washing were controlled by referring to the method of Korba et al., 1991 and HBV nucleic acid content among test sample was determined by Ambis beta scanner. […]

Series [2] can be described thus: Cytotoxicity test (neutral red dye uptake). Type of series: cell-based. As to conditions: human, 2.2.15 cells, A510, 2.2.15 cell, cells treated as in Biological Example 1, read-out: IC50 (cytotoxicity). How it is done: Further, the present inventors have performed cytotoxicity test using the neutral red dye uptake method to determine that the anti viral effect of the compound of formula (I) […] its general influence on cell growth. As a result, it was identified that the toxicity of the compound of formula (I) is much less than that of ddC.
Cytotoxicity test was carried out in order to determine whether the anti viral effect of the compound according to the present invention is due to the general influence on cell growth or not. In the present experiment, neutral red dye uptake method was used. This is a standard method widely utilized for examining cell survival, by which the variety of relations between viruses such as HSV or HIV and host organism can be understood.
Cytotoxicity test was performed on a 96-well tissue culture plate. Cells were cultured and treated with test compounds in the same manner as Biological Example 1, and the experiments at 4-kind concentrations were repeated threetimes, respectively. Since the relative toxicity can be determined from the uptake level of neutral red dye, quantitative analysis was carried out using the absorbance of internalized dye at 510 nm (A510).
Inhibitory effect of the compound of formula (I) on HBV replication in 2.2.15 cell culture, cytotoxicity, and SI (Selectivity Index, IC50 /ED50)

Series [3] concerns HBV replication. As to conditions: therapeutic agent for hepatitis B; cited from earlier work.
The conditions of series [4]: cited from earlier work.
Where [5] appears, read: 2.2.15 cell culture, treatment of 9 days.

Turning to `COC(=O)C1=CO[C@@H](OCc2ccccc2)[C@@H]2C(C=O)=CC[C@H]12` [Compound 13, Methyl (1R,4aS,7aS)-1-benzyloxy-7-formyl-1,4a,5,7a-tetrahydrocyclopenta[c]pyran-4-carboxylate], in the series on HBV replication [1] (setting [5]), the EC50 stood at 20 µM. For the same molecule, the “SI (Selectivity Index, IC50/ED50)” value with HBV replication [1] is 2.5. The CC50 in series [2] turned out to be 50 µM.

Regarding `COC(=O)C1=CO[C@@H](OC(=O)c2ccncc2)[C@@H]2C(COC(=O)c3ccncc3)=CC[C@H]12` [Compound 11, Methyl (1S,4aS,7aS)-1-isonicotinoyloxy-7-isonicotinoyloxymethyl-1,4a,5,7a-tetrahydrocyclopenta[c]pyran4-carboxylate], the EC50 with HBV replication [1] (setting [5]) is 30 µM. Besides, in the series with HBV replication [1], the “SI (Selectivity Index, IC50/ED50)” value is recorded as over 6.7. For the same molecule, in series [2], the CC50 is over 200 µM.

On to `COC(=O)C1=CO[C@@H](O)[C@@H]2C(CO)=CC[C@H]12` [genipin], for which the “inhibition of HBV replication (in words)” value in the series on HBV replication [3] is “inhibit the HBV replication”. In addition, the “in vivo activities (in words)” value in series [4] is “liver-protection, inhibition of biosynthesis of RNA and protein, detoxification as well as antiviral activity”.

`COC(=O)C1=CO[C@@H](OCc2ccccc2)[C@@H]2C(C=NO)=CC[C@H]12` [Compound 14, Methyl (1R,4aS,7aS)-1-benzyloxy-7-hydroxyiminomethyl-1,4a,5,7a-tetrahydrocyclopenta[c]pyran-4-carboxylate]: in the series with HBV replication [1] (setting [5]), the EC50 turned out to be 15 µM. In the series with HBV replication [1], the “SI (Selectivity Index, IC50/ED50)” value came to 8.7. In addition, the CC50 in series [2] came to 130 µM.

As for `Nc1ccn([C@H]2CC[C@@H](CO)O2)c(=O)n1` [ddC, dideoxy cytidine, reference compound], in the series on HBV replication [1], the EC50 is 15 µM and the “SI (Selectivity Index, IC50/ED50)” value was over 2.0. Besides, in series [2], the CC50 was over 30 µM.

Take `OCC1=C[C@@H](O)[C@@H]2C=CO[C@@H](O[C@@H]3O[C@H](CO)[C@@H](O)[C@H](O)[C@H]3O)[C@H]12` [aucubin]: the “inhibition of HBV replication (in words)” value with HBV replication [3] is recorded as “inhibit the HBV replication”. The “in vivo activities (in words)” value in series [4] was “liver-protection, inhibition of biosynthesis of RNA and protein, detoxification as well as antiviral activity”.

For the molecule `COc1ccc(COCC2=CO[C@@H](OC)[C@@H]3C(C=NO)=CC[C@H]23)cc1` [Compound 2, (1R,4aS,7aS)-7-hydroxyiminomethyl-1-methoxy-4-(p-methoxybenzyloxymethyl)-1,4a,5,7a-tetrahydrocyclopenta[c]pyran], the EC50 in the series on HBV replication [1] (setting [5]) was determined as 30 µM. In addition, the “SI (Selectivity Index, IC50/ED50)” value with HBV replication [1] was determined as 3.0. Further, in series [2], the CC50 was 90 µM.

`CO[C@@H]1OC=C(C=O)[C@H]2CC=C(C=O)[C@@H]12` [Compound 1, (1R,4aS,7aS)-4,7-diformyl-1-metboxy-1,4a,5,7a-tetrahydrocyclopenta-[c]pyran]: in the series on HBV replication [1] (setting [5]), the EC50 was over 500 µM. Further, the CC50 in series [2] came out at 120 µM.
